According to patent US4239744A, “Radioreceptor assay for benzodiazepines in plasma and other biological specimens” (United States of America, priority 1978, dated 1980):

Test system: binding sites for [^3 H] diazepam (benzodiazepine receptor), rat cerebral cortex synaptosomal membranes
Test: Radioreceptor assay: inhibition of [3H]diazepam binding to rat synaptosomal membranes by drugs dissolved in plasma
Conditions: for plasma concentration that could be reliably measured by inhibition of [3H]diazepam binding: benzodiazepine dissolved in plasma, assayed in triplicate, from standard curve in figure; for potency rank among the benzodiazepines tested in inhibiting [3H]diazepam binding: four benzodiazepines: clonazepam, N-demethyldiazepam, flurazepam
Method: Blood samples to be assayed are drawn into heparinized tubes and the plasma then separated therefrom by centrifugation at […]. Two-hundred μl of plasma is then pipetted into microtubes, e.g., Eppendorf Microtubes (Brinkman Instruments, Westbury, N.Y.) and diluted 1:10 with water. Samples are mixed by inversion and the plasma precipitated with 50 μl of perchloric acid. The samples are then vortexed briefly and centrifuged in a microcentrifuge, e.g., an Eppendorf Microfuge (Brinkman Instruments, Westbury, N.Y.), for three minutes. Twenty-five μl of the clear supernatant is withdrawn and added to 375 μl of distilled water in 16×125 mm glass tubes. Assays are thereafter performed at 0°-4° C. as follows:
The incubation is terminated after 15 min with a 5 ml wash of ice-cold […] Tris buffer (2-amino-2-hydroxymethyl-1,3-propanediol) at pH 7.4, and immediately filtered through Whatman GF/B filters in a filtering device, e.g., a Millepore filtering bank (Model 1225, Millipore Corp., Bedford, Mass.) The filters are immediately washed with an additional 5 ml of ice-cold buffer. The filters are airdried and suspended in a scintillation fluor, e.g., in 10 ml "Aquasol" (New England Nuclear, Boston, Mass.) and the radiation measured in a liquid scintillation counter, e.g., a Beckman LS-355 liquid scintillation counter.
Standard curves were constructed by adding known amounts of benzodiazepine to plasma, diluting the plasma (1:5 or 1:10) with water, and proceeding in an identical manner to unknown samples. […] The percent inhibition of specific binding by plasma samples is defined as: [formula] […] The slope and intercept of these lines were determined by least mean squares regression analysis and the benzodiazepine concentrations in unknown plasma samples computed from these values.
The synaptosomal membranes suspension described above is prepared as follows:
(a) homogenize rat brains in 20 volumes of ice-cold 0.32 M sucrose (using a Potter-Elvehjern homogenizer);
(b) centrifuge the resulting suspension obtained in step (a) at 1000×g for 10 minutes;
(c) centrifuge the supernatent obtained in step (b) at 20,000×g for 20 minutes; and
(d) resuspend the pellet obtained in step (c) in 40 volumes of Tris buffer to a final protein concentration of approximately 1 mg/ml.

Row | SMILES | plasma concentration that could be reliably measured by inhibition of [3H]diazepam binding | potency rank among the benzodiazepines tested in inhibiting [3H]diazepam binding | potency in inhibiting [3H]diazepam binding relative to the parent compound diazepam (from standard curves in figure)
1 | CCN(CC)CCN1C(=O)CN=C(c2ccccc2F)c2cc(Cl)ccc21 [flurazepam] | approximately 100 ng/ml | least potent | 
2 | O=C1CN=C(c2ccccc2Cl)c2cc([N+](=O)[O-])ccc2N1 [Clonazepam, clonazepam] | 10 ng/mL | most potent | 
3 | O=C1CN=C(c2ccccc2)c2cc(Cl)ccc2N1 [N-demethyldiazepam] |  |  | about 85%
